Experimental data reported in patent publication US9796704B2, “Substituted quinazolines as receptor-type kinase inhibitors” (Symphony Evolution, Inc., priority 2002, dated 2017).

These compounds were tested against EGFR (Homo sapiens (Human), UniProt P00533) (assay: EGFR kinase inhibition, luciferase-coupled chemiluminescent assay (LCCA)). Conditions: read-out: EGFR IC50.
EGFR, sequence (P00533 672-1210): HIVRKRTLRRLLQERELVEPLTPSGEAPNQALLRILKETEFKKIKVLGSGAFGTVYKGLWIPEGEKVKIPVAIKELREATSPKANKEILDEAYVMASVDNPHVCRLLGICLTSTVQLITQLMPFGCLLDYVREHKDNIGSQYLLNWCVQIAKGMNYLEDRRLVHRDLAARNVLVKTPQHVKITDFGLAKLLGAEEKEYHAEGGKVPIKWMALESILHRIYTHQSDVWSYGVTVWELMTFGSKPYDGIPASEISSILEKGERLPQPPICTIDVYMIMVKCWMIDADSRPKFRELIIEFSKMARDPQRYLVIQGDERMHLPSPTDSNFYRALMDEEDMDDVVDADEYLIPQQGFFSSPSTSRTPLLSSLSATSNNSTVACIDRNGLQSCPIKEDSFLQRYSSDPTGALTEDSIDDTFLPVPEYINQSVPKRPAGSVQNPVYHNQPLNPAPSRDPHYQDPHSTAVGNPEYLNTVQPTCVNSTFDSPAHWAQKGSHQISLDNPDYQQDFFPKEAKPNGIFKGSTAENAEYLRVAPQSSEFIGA
Procedure: Kinase activity and compound inhibition are investigated using one or more of the three assay formats described below. The ATP concentrations are selected near its Michaelis-Menten constant (KM) for each individual kinase. Dose-response experiments are performed at ten different inhibitor concentrations in a 384-well plate format. […] Typically H is close to unity.
In the LCCA assays, kinase activity is measured by the ATP consumption that is accurately measured by luciferase-coupled chemiluminescence. Greiner 384-well white clear bottom medium binding plates are used for LCCA. Briefly the kinase reaction is initiated by mixing compounds, ATP and kinases in a 20 μL volume. At the end of the kinase reaction, a 20 μL luciferase-luciferin mix is added and the chemiluminescent signal is read on a Wallac Victor^2 reader.

Structure (SMILES) | IC50
COc1cc2c(Nc3ccc(Cl)c(Cl)c3F)ncnc2cc1OC[C@@H]1CN2CCCC[C@@H]2C(=O)N1 [Example 50, (3S,9aR)-3-({[4-[(3,4-dichloro-2-fluorophenyl)amino]-6-(methyloxy)quinazolin-7-yl]oxy}methyl)hexahydro-2H-pyrido[1,2-a]pyrazin-1(6H)-one] | 0.05 to 1 µM
C=C1CO[C@@H]2[C@@H](Oc3cc4ncnc(Nc5ccc(Br)c(Cl)c5)c4cc3OC)CO[C@H]12 [Example 81, 1,4:3,6-dianhydro-2-O-[4-[(4-bromo-3-chlorophenyl)amino]-6-(methyloxy)quinazolin-7-yl]-5-deoxy-5-methylidene-D-xylo-hexitol] | < 0.05 µM
COc1cc2c(Nc3ccc(Br)c(Cl)c3)ncnc2cc1O[C@H]1CO[C@@H]2[C@@H](OC)[C@@H](OC)O[C@@H]21 [Example 82, methyl 3,6-anhydro-5-O-[4-[(4-bromo-3-chlorophenyl)amino]-6-(methyloxy)quinazolin-7-yl]-2-O-methyl-beta-L-idofuranoside] | < 0.05 µM
COc1cc2c(Nc3ccc(Cl)c(Cl)c3F)ncnc2cc1OCC1CCC2CCCCN2C1 (stereo not drawn) [Example 83, N-(3,4-dichloro-2-fluorophenyl)-6-(methyloxy)-7-[(octahydro-2H-quinolizin-3-ylmethyl)oxy]quinazolin-4-amine] | < 0.05 µM
COc1cc2c(Nc3ccc(F)cc3Cl)ncnc2cc1O[C@@H]1CO[C@@H]2[C@H]1OC[C@H]2F [Example 85, 1,4:3,6-dianhydro-5-O-[4-[(2-chloro4-fluorophenyl)amino]-6-(methyloxy)quinazolin-7-yl]-2-deoxy-2-fluoro-D-iditol] | < 0.05 µM
COc1cc2c(Nc3ccc(F)cc3Br)ncnc2cc1O[C@@H]1CO[C@@H]2[C@H]1OC[C@H]2F [Example 86, 1,4:3,6-dianhydro-5-O-[4-[(2-bromo-4-fluorophenyl)amino]-6-(methyloxy)quinazolin-7-yl]-2-deoxy-2-fluoro-D-iditol] | < 0.05 µM
COc1cc2c(Nc3cccc(Cl)c3F)ncnc2cc1O[C@@H]1CO[C@@H]2[C@H]1OC[C@H]2F [Example 88, 1,4:3,6-dianhydro-5-O-[4-[(3-chloro-2-fluorophenyl)amino]-6-(methyloxy)quinazolin-7-yl]-2-deoxy-2-fluoro-D-iditol] | < 0.05 µM

Further lines, results first:

IC50 | Structure (SMILES)
< 0.05 µM | COc1cc2c(Nc3cc(F)ccc3F)ncnc2cc1O[C@@H]1CO[C@@H]2[C@H]1OC[C@H]2F [Example 91, 1,4:3,6-dianhydro-2-deoxy-5-O-[4-[(2,5-difluorophenyl)amino]-6-(methyloxy)quinazolin-7-yl]-2-fluoro-D-iditol]
< 0.05 µM | COc1cc2c(Nc3cc(Cl)ccc3F)ncnc2cc1O[C@@H]1CO[C@@H]2[C@H]1OC[C@H]2F [Example 93, 1,4:3,6-dianhydro-5-O-[4-[(5-chloro-2-fluorophenyl)amino]-6-(methyloxy)quinazolin-7-yl]-2-deoxy-2-fluoro-D-iditol]
< 0.05 µM | COc1cc2c(Nc3ccc(F)c(Cl)c3)ncnc2cc1O[C@@H]1CO[C@@H]2[C@H]1OC[C@H]2F [Example 95, 1,4:3,6-dianhydro-5-O-[4-[(3-chloro-4-fluorophenyl)amino]-6-(methyloxy)quinazolin-7-yl]-2-deoxy-2-fluoro-D-iditol]
< 0.05 µM | COc1cc2c(Nc3c(F)cc(F)cc3F)ncnc2cc1O[C@@H]1CO[C@@H]2[C@H]1OC[C@H]2F [Example 100, 1,4:3,6-dianhydro-2-deoxy-2-fluoro-5-O-{6-(methyloxy)-4-[(2,4,6-trifluorophenyl)amino]quinazolin-7-yl}-D-iditol]
< 0.05 µM | COc1cc2c(Nc3cc(F)c(Oc4ccc(Cl)cc4)c(F)c3)ncnc2cc1O[C@@H]1CO[C@@H]2[C@H]1OC[C@H]2F [Example 101, 1,4:3,6-dianhydro-5-O-[4-({4-[(4-chlorophenyl)oxy]-3,5-difluorophenyl}amino)-6-(methyloxy)quinazolin-7-yl]-2-deoxy-2-fluoro-D-iditol]
